According to article PMC8795568 (Proceedings of the National Academy of Sciences of the …, 2022):

Experiments:
several solid tumors = details: trial terminated; cited from earlier work
[1] = system: NUT midline carcinoma and other solid cancers; details: patients, cited from earlier work
[2] = system: midline nuclear protein in testis (NUT) carcinoma; details: phase IIb trial, closed; ref NCT02296476; cited from earlier work
[3] = clinical; cited from earlier work
Panc1 cells = assay: Cell growth assay; assay type: cell-based, human; details: Panc1, 1 μM each drug, until DMSO cells reached 100% confluence

## CNC(=O)N1N=C(c2ccc(N3CCN(C)CC3)cc2)c2cc(OC)c(OC)cc2C[C@@H]1C [BAY1238097]
Several solid tumors
  dose-limiting toxicities: high rates of dose-limiting toxicities at subtherapeutic doses

## CCNC(=O)C[C@@H]1N=C(c2ccc(Cl)cc2)c2cc(OC)ccc2-n2c(C)nnc21 [GSK525762]
[1]; adverse effects
  rate of nausea: 40%
  rate of thrombocytopenia: 44%
[1]
  partial responses: 2 out of 10

## Cc1sc2c(c1C)C(c1ccc(Cl)cc1)=N[C@@H](CC(=O)Nc1ccc(O)cc1)c1nnc(C)n1-2 [MK-8628]
[2]
  clinical activity: lack of detectable clinical activity

## COc1cc(OC)c2c(=O)[nH]c(-c3cc(C)c(OCCO)c(C)c3)nc2c1 [RVX000222]
[3]
  safety: improved safety threshold

## COc1ccc(CCc2nc3cc(-c4c(C)noc4C)ccc3n2C[C@H](C)N2CCOCC2)cc1Cl [SGC-CBP30]
Panc1 cells
  cell growth (confluence): marginal effect on cell growth
